Holding throughout (assay type): cell-based
In assay [1] the test system is Staphylococcus aureus UC 1128. Nature of the assay: serial dilution liquid medium MIC, Staphylococcus aureus UC 1128 pen-resistant. The settings on record: UC1128; Staphylococcus aureus UC 1128 pen-resistant; 24 hours at 37° C.; read-out: minimum inhibiting concentration (MIC). The protocol:
(§1) The method was a serial dilution of liquid medium test wherein a series of tubes were prepared containing the same amount of sterile nutritive medium and increasing amounts of the test product was distributed in each tube. The tubes were then seeded with a bacterial strain and incubated for 24 hours in an oven at 37° C. The degree of inhibition was determined by transillumination to determine the minimum inhibiting concentration (MIC) express in μg/ml and the results are reported in the following Tables.

For assay [2], the system named is Staphylococcus aureus exp. n° 54 146. The assay can be described thus: serial dilution liquid medium MIC, Staphylococcus aureus exp. n° 54 146. The following applies: Staphylococcus aureus exp. 54 146; 24 hours at 37° C.; read-out: minimum inhibiting concentration (MIC). Here is the method:
as §1

Assay [3] has as its system Streptococcus pyogenes A 561. Nature of the assay: serial dilution liquid medium MIC, Streptococcus pyogenes A 561. The following applies: A561, 24 hours at 37° C., read-out: minimum inhibiting concentration (MIC). Here is the method:
as §1

Assay [4] relates to Streptococcus faecalis 5432. Nature of the assay: serial dilution liquid medium MIC, Streptococcus faecalis 5432. The following applies: Enterococcus faecalis, 24 hours at 37° C., read-out: minimum inhibiting concentration (MIC). Here is the method:
as §1

Assay [5] deals with Streptococcus faecalis 99 F 74. The assay can be described thus: serial dilution liquid medium MIC, Streptococcus faecalis 99 F 74. The settings on record: Enterococcus faecalis, 99F74, 24 hours at 37° C., read-out: minimum inhibiting concentration (MIC). Here is the method:
as §1

Assay [6] relates to Staphylococcus aureus 1061. The assay can be described thus: serial dilution liquid medium MIC, Staphylococcus aureus 1061 pen-sensibles. The settings on record: 24 hours at 37° C., read-out: minimum inhibiting concentration (MIC). The protocol: as §1
The subject of assay [7] is Streptococcus faecalis 5435. The assay can be described thus: serial dilution liquid medium MIC, Streptococcus faecalis 5435. The settings on record: Enterococcus faecalis, 24 hours at 37° C., read-out: minimum inhibiting concentration (MIC). Here is the method:
as §1

The values that follow come from US4349545A, “Novel erythromycin a derivatives” (Roussel Uclaf, priority 1980, dated 1982).

Molecules are shown by their SMILES. Converted amounts (≈) assume the structure as drawn.

As for `CC[C@H]1OC(=O)[C@H](C)[C@@H](O[C@H]2C[C@@](C)(OC)[C@@H](O)[C@H](C)O2)[C@H](C)[C@@H](O[C@@H]2O[C@H](C)C[C@H](N(C)C)[C@H]2O)[C@](C)(O)C[C@@H](C)C(=NOCSc2ccccc2)[C@H](C)[C@@H](O)[C@]1(C)O` [Example 28, 9-[0-(phenylthiomethyl)-oxime] of erythromycin], the MIC was 0.6 µg/mL (≈ 0.689 µM) in assay [1]; 0.6 µg/mL (≈ 0.689 µM) in assay [2]; 0.05 µg/mL (≈ 0.0574 µM) in assay [3]; 0.2 µg/mL (≈ 0.23 µM) in assay [4]; 0.2 µg/mL (≈ 0.23 µM) in assay [5]; 0.4 µg/mL (≈ 0.459 µM) in assay [6]. In addition, the MIC in assay [7] stood at 0.4 µg/mL (≈ 0.459 µM).

In the case of `CC[C@H]1OC(=O)[C@H](C)[C@@H](O[C@H]2C[C@@](C)(OC)[C@@H](O)[C@H](C)O2)[C@H](C)[C@@H](O[C@@H]2O[C@H](C)C[C@H](N(C)C)[C@H]2O)[C@](C)(O)C[C@@H](C)C(=NOCCNC(C)C)[C@H](C)[C@@H](O)[C@]1(C)O` [Example 39, 9-[O-(2-isopropylamino)-oxime] of erythromycin], the MIC in assay [1] is 0.6 µg/mL (≈ 0.719 µM); in assay [2], 0.4 µg/mL (≈ 0.48 µM); in assay [3], 0.01 µg/mL (≈ 0.012 µM); in assay [4] it was 0.05 µg/mL (≈ 0.0599 µM); in assay [5] it was no more than 0.02 µg/mL; in assay [6], 0.3 µg/mL (≈ 0.36 µM). Besides, in assay [7], the MIC was 0.1 µg/mL (≈ 0.12 µM).

On to `CC[C@H]1OC(=O)[C@H](C)[C@@H](O[C@H]2C[C@@](C)(OC)[C@@H](O)[C@H](C)O2)[C@H](C)[C@@H](O[C@@H]2O[C@H](C)C[C@H](N(C)C)[C@H]2O)[C@](C)(O)C[C@@H](C)C(=NOCCN2CCCCC2)[C@H](C)[C@@H](O)[C@]1(C)O` [Example 34, 9-[O-(2{-piperidin-1-yl}-ethyl)-oxime] of erythromycin], for which the MIC was 0.6 µg/mL (≈ 0.698 µM) in assay [1]; 0.6 µg/mL (≈ 0.698 µM) in assay [2]; no more than 0.01 µg/mL in assay [3]; 0.1 µg/mL (≈ 0.116 µM) in assay [4]; 0.05 µg/mL (≈ 0.0581 µM) in assay [5]; 0.4 µg/mL (≈ 0.465 µM) in assay [6]. Further, the MIC in assay [7] was 0.2 µg/mL (≈ 0.233 µM).

Regarding `CC[C@H]1OC(=O)[C@H](C)[C@@H](O[C@H]2C[C@@](C)(OC)[C@@H](O)[C@H](C)O2)[C@H](C)[C@@H](O[C@@H]2O[C@H](C)C[C@H](N(C)C)[C@H]2O)[C@](C)(O)C[C@@H](C)C(=NOCC(O)CN(C)C)[C@H](C)[C@@H](O)[C@]1(C)O` (stereo partly drawn) [Example 48, 9-[0-(3-dimethylamino-2-hydroxy-propyl)-oxime] of erythromycin], the MIC was found to be 0.6 µg/mL (≈ 0.706 µM) in assay [1]; 0.6 µg/mL (≈ 0.706 µM) in assay [2]; 0.05 µg/mL (≈ 0.0588 µM) in assay [3]; 0.4 µg/mL (≈ 0.471 µM) in assay [4]; 0.1 µg/mL (≈ 0.118 µM) in assay [5]; 0.4 µg/mL (≈ 0.471 µM) in assay [6]. For the same compound, the MIC in assay [7] turned out to be 1 µg/mL (≈ 1.18 µM).

In the case of `CCSCC(O)CON=C1[C@H](C)C[C@@](C)(O)[C@H](O[C@@H]2O[C@H](C)C[C@H](N(C)C)[C@H]2O)[C@@H](C)[C@H](O[C@H]2C[C@@](C)(OC)[C@@H](O)[C@H](C)O2)[C@@H](C)C(=O)O[C@H](CC)[C@@](C)(O)[C@H](O)[C@H]1C` (stereo partly drawn) [Example 16, 9-[0-(3-ethylthio-2-hydroxy-propyl)-oxime] of erythromycin], the MIC in assay [1] came out at 0.6 µg/mL (≈ 0.692 µM); in assay [2], 0.4 µg/mL (≈ 0.461 µM); in assay [3], 0.05 µg/mL (≈ 0.0577 µM); in assay [4] it was 0.2 µg/mL (≈ 0.231 µM); in assay [5], 0.1 µg/mL (≈ 0.115 µM); in assay [6], 0.4 µg/mL (≈ 0.461 µM). Further, the MIC in assay [7] is 1 µg/mL (≈ 1.15 µM).

Regarding `CC[C@H]1OC(=O)[C@H](C)[C@@H](O[C@H]2C[C@@](C)(OC)[C@@H](O)[C@H](C)O2)[C@H](C)[C@@H](O[C@@H]2O[C@H](C)C[C@H](N(C)C)[C@H]2O)[C@](C)(O)C[C@@H](C)C(=NOCOCCN(C)C)[C@H](C)[C@@H](O)[C@]1(C)O` [Example 22, 9-[0-{(2-dimethylaminoethoxy)-methyl}-oxime] of erythromycin], the MIC in assay [1] is 0.6 µg/mL (≈ 0.706 µM); in assay [2], 0.4 µg/mL (≈ 0.471 µM); in assay [3], no more than 0.01 µg/mL; in assay [4], 0.05 µg/mL (≈ 0.0588 µM); in assay [5] it was 0.05 µg/mL (≈ 0.0588 µM); in assay [6] it was 0.4 µg/mL (≈ 0.471 µM). The MIC in assay [7] was 0.2 µg/mL (≈ 0.235 µM).
